Data as given in patent US11578343B2, “CAS9 proteins including ligand-dependent inteins” (President and Fellows of Harvard College, priority 2014, dated 2023).

Assays:
Type in all cases: cell-based, human
genomic EGFP locus [1] = assay: Genomic EGFP disruption in HEK293-GFP stable cells (loss of GFP by flow cytometry); details: for Loss of GFP expression / nuclease activity, in words: with or without 1 μM 4-HT, FIG. 3c
Method: HEK293-GFP stable cells were transfected with the Cas9 expression plasmid, a gRNA (targeting Emerald GFP; Guilinger et al., Nature Biotechnology (2014)), and iRFP670 (transfection control), using Lipofectamine 2000. Twelve hours after transfection, media, either containing 4-HT (1 μM) or without 4-HT, was added.
Five days after transfection, cells were trypsinized and analyzed on a flow cytometer. Cells lacking GFP indicated genome modification. Cas9 variants that induced minimal genome modification in the absence of 4-HT but induce significant genome modification in the presence of 4-HT were deemed small-molecule-regulated variants in this Example.
Additionally, a time course was performed in which incubation with 4-HT was limited to 2, 4, 8, 12 or 24 hours, after which point the media was replaced.
We genetically inserted the 4-HT-dependent intein at each of fifteen positions in Cas9 (Cys80, Ala127, Thr146, Ser219, Thr333, Thr519, Cys574, Thr622, Ser701, Ala728, Thr995, Ser1006, Ser1154, Ser1159, and Ser1274), chosen to distribute the location of the intein across the structural domains of Cas9^23 (FIG. 3b and Example 1). Because intein splicing leaves behind a single Cys residue, the intein was inserted in place of one Cas9 amino acid in each of the 15 candidate constructs. In addition to replacing natural Cys amino acids, we also favored replacing Ala, Ser, or Thr residues to minimize the likelihood that the resulting Cys point mutation resulting from protein splicing would disrupt Cas9 activity. The 15 intein-Cas9 candidates were expressed in HEK293-GFP cells together with a sgRNA that targets the genomic EGFP locus in these cells. Twelve hours post-transfection, cells were treated with or without 1 μM 4-HT. Five days post-transfection, cells were analyzed on a flow cytometer for loss of GFP expression from Cas9-mediated EGFP cleavage and subsequent non-homologous end joining.
Modification of genomic GFP. HEK293-GFP stable cells (GenTarget), which constitutively express Emerald GFP, served as the reporter cell line. Cells were maintained in “full serum media”: Dulbecco's Modified Eagle's Media plus GlutaMax (Life Technologies) with 10% (vol/vol) FBS and penicillin/streptomycin (1×, Amresco). 5×10^4 cells were plated on 48-well collagen-coated Biocoat plates (Becton Dickinson). 16-18 h after plating, cells were transfected with Lipofectamine 2000 (Life Technologies) according to the manufacturer's protocol. Briefly, 1.5 μL of Lipofectamine 2000 was used to transfect 650 ng of total plasmid: 500 ng Cas9 expression plasmid, 125 ng sgRNA expression plasmid, and 25 ng near-infrared iRFP670 expressing plasmid (Addgene plasmid 45457)^26. 12 h after transfection, the media was replaced with full serum media, with or without 4-HT (1 μM, Sigma-Aldrich T176). The media was replaced again 3-4 days after transfection. Five days after transfection, cells were trypsinized and resuspended in full serum media and analyzed on a C6 flow cytometer (Accuri) with a 488-nm laser excitation and 520-nm filter with a 20-nm band pass. Transfections and flow cytometry measurements were performed in triplicate.

genomic EGFP locus [2] = assay: as above; details: FIG. 12
HEK293-GFP stable cells = assay: Effect of 4-HT on cellular toxicity (live cell population, TO-PRO-3 stain, flow cytometry); details: 12 or 60 h of treatment with 1 μM 4-HT; untransfected or transfected HEK293 cells; FIG. 5
Method: FIG. 5. Effect of 4-HT on cellular toxicity. Untransfected HEK293-GFP stable cells, and cells transfected with intein-Cas9(5219) and sgRNA expression plasmids, were treated with or without 4-HT (1 μM). 12 h after transfection, the media was replaced with full serum media, with or without 4-HT (1 μM). Cells were thus exposed to 4-HT for 0, 12, or 60 h. The live cell population was determined by flow cytometry 60 h after transfection using TO-PRO-3 stain (Life Technologies). Error bars reflect the standard deviation of six technical replicates.
We assayed these Cas9:sgRNA combinations in human cells for their ability to modify the three on-target loci as well as 11 known off-target genomic sites (Table 3)^4,5,10,13. Cells were treated with or without 1 μM 4-HT during transfection, and after 12 h the media was replaced with fresh media lacking 4-HT. […] Genomic DNA was isolated 60 h post-transfection and analyzed by high-throughput DNA sequencing

[3] = +4-HT 2 hrs, then media replaced, Table 2
[4] = +4-HT 4 hrs, then media replaced, Table 2
[5] = +4-HT 8 hrs, then media replaced, Table 2
[6] = +4-HT 12 hrs, then media replaced, Table 2
[7] = +4-HT 24 hrs, then media replaced, Table 2
[8] = +4-HT (1 μM, added 12 h after transfection), five days after transfection, Table 1
[9] = −4-HT, five days after transfection, Table 1

Substance | Cells without GFP (%) (genomic EGFP locus [1]; [3]) | Cells without GFP (%) (genomic EGFP locus [1]; [4]) | Cells without GFP (%) (genomic EGFP locus [1]; [5]) | Cells without GFP (%) (genomic EGFP locus [1]; [6]) | Cells without GFP (%) (genomic EGFP locus [1]; [7]) | Cells without GFP (%) (genomic EGFP locus [1]; [8]) | Loss of GFP expression / nuclease activity, in words (genomic EGFP locus [1]) | Cells without GFP (%) (genomic EGFP locus [1]; [9]) | Cells without GFP (%) (genomic EGFP locus [1]; −4-HT, time course, Table 2) | Ability of β-estradiol to trigger Cas9 activity (genomic EGFP disruption) (genomic EGFP locus [2]) | Cellular toxicity (HEK293-GFP stable cells)
intein(Thr146)-Cas9: Cas9 with 37R3-2 intein replacing Thr146 (SEQ ID NO: 29) | 16.29% | 15.07% | 13.65% | 14.44% | 19.57% | 21.60% | 4-HT-dependent loss of GFP expression | 8.77% | 4.28% | – | –
intein(Ala127)-Cas9: Cas9 with 37R3-2 intein replacing Ala127 (SEQ ID NO: 28) | 18.95% | 18.57% | 18.64% | 18.35% | 16.83% | 19.73% | 4-HT-dependent loss of GFP expression | 7.97% | 5.03% | – | –
intein(Ala728)-Cas9: Cas9 with 37R3-2 intein replacing Ala728 (SEQ ID NO: 36) | – | – | – | – | – | 41.89% | high DNA modification rates both in the presence and absence of 4-HT | 20.82% | – | – | –
intein(Ser701)-Cas9: Cas9 with 37R3-2 intein replacing Ser701 (SEQ ID NO: 35) | – | – | – | – | – | 9.56% | lack of nuclease activity | 6.54% | – | – | –
intein(Ser1154)-Cas9: Cas9 with 37R3-2 intein replacing Ser1154 (SEQ ID NO: 39) | – | – | – | – | – | 41.94% | high DNA modification rates both in the presence and absence of 4-HT | 21.14% | – | – | –
intein-Cas9(5219-G521R): intein-Cas9(S219) with point mutation G521R in the estrogen receptor ligand-binding domain (probably SEQ ID NO: 166) | – | – | – | – | – | – | – | – | – | eliminates the ability of β-estradiol to trigger Cas9 activity | –
intein(Ser1274)-Cas9: Cas9 with 37R3-2 intein replacing Ser1274 (SEQ ID NO: 41) | – | – | – | – | – | 5.00% | lack of nuclease activity | 3.08% | – | – | –
intein(Ser1159)-Cas9: Cas9 with 37R3-2 intein replacing Ser1159 (SEQ ID NO: 40) | – | – | – | – | – | 13.21% | 4-HT-dependent loss of GFP expression | 5.65% | – | – | –
intein(Thr333)-Cas9: Cas9 with 37R3-2 intein replacing Thr333 (SEQ ID NO: 31) | – | – | – | – | – | 9.17% | 4-HT-dependent loss of GFP expression | 4.96% | – | – | –
intein(Thr519)-Cas9: Cas9 with 37R3-2 intein replacing Thr519 (SEQ ID NO: 32) | 14.55% | 13.98% | 14.74% | 13.93% | 18.04% | 25.96% | 4-HT-dependent loss of GFP expression | 9.49% | 4.29% | – | –
intein(Thr622)-Cas9: Cas9 with 37R3-2 intein replacing Thr622 (SEQ ID NO: 34) | – | – | – | – | – | 3.96% | lack of nuclease activity | 5.67% | – | – | –
4-hydroxytamoxifen [4-HT] | – | – | – | – | – | – | – | – | – | – | no cellular toxicity
intein(Thr995)-Cas9: Cas9 with 37R3-2 intein replacing Thr995 (SEQ ID NO: 37) | – | – | – | – | – | 21.39% | high DNA modification rates both in the presence and absence of 4-HT | 14.95% | – | – | –
intein(Cys80)-Cas9: Cas9 with 37R3-2 intein replacing Cys80 (SEQ ID NO: 27) | – | – | – | – | – | 4.96% | lack of nuclease activity | 7.08% | – | – | –
intein(Ser1006)-Cas9: Cas9 with 37R3-2 intein replacing Ser1006 (SEQ ID NO: 38) | – | – | – | – | – | 12.61% | 4-HT-dependent loss of GFP expression | 6.80% | – | – | –
